Measured values taken from patent US9221868B2, “Uridine di- or tri-phosphate derivatives and uses thereof” (BAR-ILAN UNIVERSITY, priority 2010, dated 2015).

What was measured:
P2Y2-R = P2Y2-R (Homo sapiens, UniProt P41231); assay: [Ca2+]i increase in 1321N1 astrocytoma cells expressing P2Y2-R; type: cell-based; parameters: expressed in transfected cells; host or cells: 1321N1 astrocytoma cells; settings: 1321N1 astrocytoma cells, [Ca2+]i; n.d.r = no detectable response up to 100 μM
Description: Green fluorescent protein (GFP) constructs of human P2Y2-R, P2Y4-R and P2Y6-R were expressed in 1321N1 astrocytoma cells, which lack endogenous expression of P2X- and P2Y-receptors. The respective cDNA of the receptor gene was cloned into a pEGFPN1 vector. After transfection using FuGENE 6 Transfection Reagent (Roche Molecular Biochemicals, Mannheim, Germany), the cells were selected with 0.5 mg/ml G418 (geneticine; Merck Chemicals, Darmstadt, Germany) and grown in Dulbecco's modified Eagles' medium (DMEM) supplemented with 10% fetal calf serum, 100 U/ml penicillin and […] at 37° C. and 5% CO2. The expression and cell membrane localization of the respective P2Y receptors was confirmed through the analysis of the GFP fluorescence. The functionality of the expressed GFP-labeled receptor in cells was verified by recording a change of [Ca^2+]i after stimulation with the appropriate receptor agonist.
1321N1 astrocytoma cells transfected with the respective plasmid for P2YR-GFP expression plated on coverslips (22 mm diameter) and grown to approximately 80% density were incubated with 2 μM fura 2/AM and 0.02% pluronic acid in Na-HBS buffer (Hepes buffered saline: 145 mM NaCl, 5.4 mM KCl, 1.8 mM CaCl2, 1 mM MgCl2, 25 mM glucose, 20 mM Hepes/Tris pH 7.4) for 30 min at 37° C. The cells were superfused (1 ml/min, 37° C.) with different concentrations of nucleotide in Na-HBS buffer, and the nucleotide-induced change of [Ca^2+]i was measured by detecting the respective emission intensity of fura 2/AM at 510 nm with after 340 nm and 380 nm excitations (Ubl et al., 1998). The average maximal amplitude of the responses and the respective standard errors were calculated from the ratio of the fura 2/AM fluorescence intensities with excitations at 340 nm and 380 nm (only MT-labeled cells were analysed). Microsoft Excel (Microsoft Corp., Redmond, Wash., USA) and SigmaPlot (SPSS Inc., Chicago, Ill., USA) were used to derive the concentration-response curves and EC50 values from the average response amplitudes obtained in at least three independent experiments (Ecke et al., 2006, 2008). Only cells with a clear MT-signal and with the typical calcium response kinetics upon agonist pulse application were included in the data analysis. The GFP-tagged P2Y receptors are suitable for pharmacological and physiological studies, as previously reported (Tulapurkar et al., 2004, 2006; Zylberg et al., 2007).
In this study, analogues 13-17 were tested for their potency and selectivity at P2Y2,4,6-receptors based on measurements of increases in intracellular calcium concentrations in 1321N1 astrocytoma cells transfected with the respective plasmid, as described in Materials and Methods, and the results are summarized in Table 2.

P2Y6-receptor = P2Y6-receptor (Homo sapiens, UniProt Q15077); settings: Ginsburg-Shmuel et al., 2010; read-out: EC50 at P2Y6-receptor (literature); cited from earlier work
P2Y6-receptor, sequence (Q15077 whole entry): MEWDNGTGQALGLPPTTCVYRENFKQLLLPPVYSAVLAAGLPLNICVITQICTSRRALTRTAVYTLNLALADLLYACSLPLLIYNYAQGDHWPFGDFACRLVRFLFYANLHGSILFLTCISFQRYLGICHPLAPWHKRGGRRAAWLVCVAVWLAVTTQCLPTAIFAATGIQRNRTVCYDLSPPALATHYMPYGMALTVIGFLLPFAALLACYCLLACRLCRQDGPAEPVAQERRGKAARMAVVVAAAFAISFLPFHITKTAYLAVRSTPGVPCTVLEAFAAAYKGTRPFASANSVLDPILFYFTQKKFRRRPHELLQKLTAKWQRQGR

P2Y2-R, sequence (P41231 whole entry): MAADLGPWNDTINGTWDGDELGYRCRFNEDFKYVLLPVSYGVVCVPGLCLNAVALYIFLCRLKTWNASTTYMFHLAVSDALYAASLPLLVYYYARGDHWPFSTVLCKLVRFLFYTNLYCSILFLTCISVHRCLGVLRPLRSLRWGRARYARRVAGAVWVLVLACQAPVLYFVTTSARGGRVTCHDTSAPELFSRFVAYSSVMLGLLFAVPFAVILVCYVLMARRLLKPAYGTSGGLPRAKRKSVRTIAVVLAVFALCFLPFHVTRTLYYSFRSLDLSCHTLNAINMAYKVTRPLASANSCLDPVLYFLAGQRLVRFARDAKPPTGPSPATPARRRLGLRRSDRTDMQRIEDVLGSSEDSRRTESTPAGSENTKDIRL

Row | Potencies (EC50) at the P2Y2-R (P2Y2-R) | Compound | EC50 (P2Y6-receptor) [nM]
1 | n.d.r | [BH3-][P+](O)(OCC1OC(n2cc(OC)c(=O)[nH]c2=O)C(O)C1O)OP(=O)(O)O (single isomer, unassigned) [Analogue 13A, 5-methoxyuridine-5′-O-(α-boranodiphosphate)] | –
2 | – | O=c1ccn([C@@H]2O[C@H](COP(=O)(O)OP(=O)(O)O)[C@@H](O)[C@H]2O)c(=O)[nH]1 [UDP, reference compound] | 140
